Measurements from patent publication US8871789B2, “Method of preventing or treating viral infection” (The United States of America, as represented by the …, priority 2010, dated 2014).

Experiments:
[1] = tested on: HSV-1; assay: MRC-5 cells infected with HSV-1 at high MOI (IE mRNA, viral yields); type: cell-based
Procedure: FIG. 15 is a bar graph showing MRC-5 cells treated with DMSO or 50 mM ML324 that were infected with HSV-1 at the indicated multiplicity of infection (MOI). Viral IE and cellular mRNA levels were quantitated at 2 hours after infection. *P<0.0001, two-way ANOVA with Tukey's post hoc test. Data are means±SEM.
FIG. 16 is a bar graph showing MRC-5 cells treated with DMSO or 50 mM ML324 that were infected with HSV-1 at the indicated MOI. Viral yields were determined at 24 hours after infection. *P<0.0001, two-way ANOVA with Tukey's post hoc test. Data are means±SEM.

[2] = tested on: HSV-1; assay: Plaque assay of Vero cells infected with HSV-1; type: cell-based; parameters: # Plaques: dose or concentration left out as unconfirmed; details: for # Plaques: 12 hours infection, then ACV or ML324 for 48 hours
Procedure: ML324 was ˜75-fold more efficient than DMOG. Additionally, ML324 (i) reduced viral yields in a dose-dependent manner (˜5 logs at 50 mM, FIG. 14); (ii) blocked viral IE gene transcription and reduced viral yields when cells were infected at high multiplicity of infection (MOI; FIGS. 15 and 16); and (iii) suppressed IE gene transcription, even when added at times after infection (>50% reduction at 2 hours after infection; FIG. 17). As further evidence for the efficacy of ML324, cells were infected with HSV to allow for a productive cycle of infection, followed by treatment with DMSO, ACV, or ML324.

[3] = tested on: HSV-1; assay: HSV-1 IE mRNA levels in infected HFF cells; type: cell-based
Procedure: FIG. 13 is a line graph showing viral IE (ICP4, ICP27, and ICP22) and control (S15, Sp1, and TBP) mRNA levels in HFF cells treated with DMSO or the indicated concentrations of ML324 for 3 hours and infected with HSV-1 (0.1 PFU per cell) for 3 hours. *P<0.0001, two-way ANOVA with Tukey's post hoc test. Data are means±SEM.
HSV-1 IE mRNA levels of ICP4 and ICP27 decrease in cells infected in the presence of DMOG. Human foreskin fibroblast (HFF) cells were infected with HSV-1 at 0.1 PFU/cell for 3 hrs in the presence of increasing concentrations of DMOG. Cells were harvested and the levels of viral IE (ICP4, ICP27) and cell control (s15) mRNAs were assessed by qRT-PCR.
All experiments were performed as described in Liang et al., Sci. Transl. Med. 5, 167ra5 (2013). N-(3-(dimethylamino)propyl)-4-(8-hydroxyquinolin-6-yl)benzamide (designated ML324) has the following characteristics: N-(3-(dimethylamino)propyl)-4-(8-hydroxyquinolin-6-yl)benzamide (1). LC-MS: rt (min)=3.033; ^1H NMR (400 MHz, DMSO-d6) δ 1.84-1.98 (m, 2H), 2.79 (s, 3H), 2.80 (s, 3H), 3.12 (ddd, J=10.2 Hz, 5.4 Hz and 5.2 Hz, 2H), 3.37 (q, 2H), 7.50 (s, 1H), 7.66 (dd, J=8.2 Hz and 4.3 Hz, 1H), 7.84 (s, 1H), 7.88-7.94 (m, 2H), 7.96-8.02 (m, 2H), 8.50 (d, J=8.2 Hz, 1H), 8.71 (t, J=5.6 Hz, 1H), 8.90 (d, J=4.1 Hz, 1H), 9.34 (brs, 1H); HRMS (ESI) m/z (M+H)^+ C21H24N3O2, 350.1867. found 350.1863.

[4] = tested on: HSV-1; assay: HSV-1 lytic viral yields from HFF cells; type: cell-based; parameters: reduction of viral yields: dose or concentration left out as unconfirmed; details: HFF cells, HSV-1 0.1 PFU per cell, 24 hours; FIG. 14
Procedure: FIG. 14 is a bar graph showing viral yields from HFF cells treated with DMSO or ML324 for 3 hours and infected with HSV-1 (0.1 PFUper cell) for 24 hours in the presence of the drugs. *P<0.004, one-way ANOVA with Dunnett's post hoc test. Data are means±SEM.
HSV-1 lytic viral yields decrease in the presence of DMOG (FIG. 10). HFF cells were pretreated with DMSO control or JMJD2 inhibitor DMOG for 5 hrs and infected with 0.1 pfu/cell of HSV-1 for 24 hrs in the presence of DMSO or DMOG. The yield of infectious virus derived from each treatment were determined by tittering on Vero cells according to standard procedures.

[5] = tested on: HSV-1; type: cell-based, mouse
Procedure: FIG. 20 is a dot plot showing latently infected trigeminal ganglia that were explanted in the presence of DMSO, 100 mM ACV, or 50 mM ML324 for 48 hours. The total number of UL29+ neurons per ganglia is graphed, representing the number of neurons undergoing viral reactivation. Data are means±SEM.

[6] = treatment after productive cycle of infection
[7] = 100 mM ACV or 50 mM ML324, 48 hours

## CN(C)CCCNC(=O)c1ccc(-c2cc(O)c3ncccc3c2)cc1 [Compound 4, N-(3-(dimethylamino)propyl)-4-(8-hydroxyquinolin-6-yl)benzamide]
[1]; 50 mM ML324, 2 hours after infection, FIG. 15
  viral IE gene transcription at high multiplicity of infection: blocked
[1]; 50 mM ML324, 24 hours after infection, FIG. 16
  viral yields at high multiplicity of infection: reduced
[2]; MOI .001
  # Plaques: 0
[2]; MOI .01
  # Plaques: 2
[2]; [6]
  formation of HSV plaques: markedly suppressed
  spread of infection to adjacent cells (UL29 immunofluorescence): markedly suppressed
[3]; Human alphaherpesvirus 1, HFF, 3 h, read-out: IC50 for reducing IE gene expression
  IC50: ~10 µM
[3]; ML324 versus DMOG
  efficiency relative to DMOG in reducing IE gene expression: ~75 fold
[4]
  reduction of viral yields: ~5 logs
[5]; 50 mM ML324, 48 hours, FIG. 20
  primary viral reactivation events: suppressed
[5]; [7]
  UL29+ cell clusters: 2 clusters in 48 ganglia sections
  isolated UL29+ neurons relative to DMSO: most significant reduction
